Laboratory results from US20070264679A1, “Method for analyzing the activity of lipoxygenase using a water-soluble substrate” (Chungnam National University Industry Collaboration …, priority 2006, published 2007).

Legend:
Assay type in all cases: biochemical
[1] = biological target: T1, Porcine leukocyte LOX (Sus scrofa, UniProt P16469); test: Kinetics of oxygenation of linoleoylated substrates by leukocyte LOX; details: porcine leukocyte LOX 1.5 units/ml, 100 mM phosphate buffer pH 7.5, 5 mM EDTA; for Vm: 0.03% Tween 20; for Km: substrate 3-100 μM, 0.03% Tween 20, 25° C.
T1 construct: purchased Cayman Chemical Co. (Ann Arbor, Mich., USA)
T1 sequence (P16469 1-663): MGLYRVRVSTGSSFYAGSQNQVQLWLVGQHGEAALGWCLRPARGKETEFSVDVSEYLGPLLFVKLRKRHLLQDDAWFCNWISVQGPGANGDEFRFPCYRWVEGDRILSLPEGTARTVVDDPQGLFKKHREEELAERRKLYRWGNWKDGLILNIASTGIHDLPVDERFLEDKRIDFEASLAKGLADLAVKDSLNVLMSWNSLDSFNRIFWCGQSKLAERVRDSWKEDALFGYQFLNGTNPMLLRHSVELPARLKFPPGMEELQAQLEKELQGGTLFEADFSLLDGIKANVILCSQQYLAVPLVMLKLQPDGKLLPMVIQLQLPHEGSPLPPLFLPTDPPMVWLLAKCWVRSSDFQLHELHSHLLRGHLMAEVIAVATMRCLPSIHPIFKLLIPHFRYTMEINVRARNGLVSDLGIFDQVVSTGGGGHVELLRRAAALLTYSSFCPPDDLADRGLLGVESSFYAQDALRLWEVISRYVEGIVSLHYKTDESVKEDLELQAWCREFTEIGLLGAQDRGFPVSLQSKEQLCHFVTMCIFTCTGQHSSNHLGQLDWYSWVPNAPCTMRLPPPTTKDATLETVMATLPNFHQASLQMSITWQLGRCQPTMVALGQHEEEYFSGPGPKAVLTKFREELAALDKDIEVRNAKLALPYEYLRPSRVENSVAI
Source text: Data were expressed as means ±S.D. of results from at least three independent experiments.

[2] = biological target: T2, soybean lipoxygenase-1 (LOX-1) (Glycine max, UniProt P08170); test: Kinetics of oxygenation of linoleic acid, soybean lysoPC or linoleoyl-lysoPC by soybean LOX-1 (absorbance at 234 nm); details: for Km: 50 mM borax buffer pH 9.0, 25° C., Lineweaver Burke plot; for Vm: soybean LOX-1, 50 mM borax buffer pH 9.0, 25° C., unit = one micromole conjugated diene per min
T2 construct: purchased Sigma-Aldrich Corp (St. Louis, Mo., USA) lipoxidase Type I-B
T2 sequence (P08170 1-839): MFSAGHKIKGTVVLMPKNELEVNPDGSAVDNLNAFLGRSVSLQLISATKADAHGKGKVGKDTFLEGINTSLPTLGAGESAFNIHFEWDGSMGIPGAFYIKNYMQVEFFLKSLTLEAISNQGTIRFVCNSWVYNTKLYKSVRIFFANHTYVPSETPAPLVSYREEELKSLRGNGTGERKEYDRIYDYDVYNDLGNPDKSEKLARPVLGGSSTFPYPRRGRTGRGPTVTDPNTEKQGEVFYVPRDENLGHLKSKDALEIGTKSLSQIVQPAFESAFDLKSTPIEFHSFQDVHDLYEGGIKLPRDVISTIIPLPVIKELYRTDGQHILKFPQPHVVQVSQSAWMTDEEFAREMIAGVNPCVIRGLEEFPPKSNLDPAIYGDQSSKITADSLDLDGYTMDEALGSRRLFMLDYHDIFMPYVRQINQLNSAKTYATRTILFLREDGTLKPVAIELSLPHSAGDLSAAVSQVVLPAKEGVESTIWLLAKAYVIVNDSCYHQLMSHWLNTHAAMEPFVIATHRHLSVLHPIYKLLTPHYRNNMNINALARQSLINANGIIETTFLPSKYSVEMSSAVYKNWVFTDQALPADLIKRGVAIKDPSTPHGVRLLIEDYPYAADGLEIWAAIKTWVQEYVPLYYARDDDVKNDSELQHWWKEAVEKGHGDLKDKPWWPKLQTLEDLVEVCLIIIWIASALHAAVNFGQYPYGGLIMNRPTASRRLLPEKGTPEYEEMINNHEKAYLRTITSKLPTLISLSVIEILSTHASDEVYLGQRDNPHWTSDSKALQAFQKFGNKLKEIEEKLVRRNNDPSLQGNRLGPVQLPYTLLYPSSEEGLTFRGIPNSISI
Procedure: Lipoxygenase-1 (LOX-1) activity was monitored at 25° C. by measuring the increase in absorbance at 234 nm due to the formation of hydroperoxide (ε234=25,000 M^−1 cm^−1) as previously reported (Axelrod et al, Methods Enzymol. 71 (1981) 441-451; Egmond et al, Eur. J. Biochem. 61 (1976) 93-100). […] One unit is defined as the amount of LOX-1 that can produce one micromole of conjugated diene per min.
LOX-1 was purified from soy bean lipoxidase preparation (Type I-B) according to the method of Finazzi Agro et al (Finazzi-Agro et al, Biochim. Biophys. Acta 326 (1973) 462-470). Briefly, soybean LOX-1 (100 mg) was dissolved in 0.1 M phosphate buffer (pH 6.8), and applied to DEAE Sephacel (1.5×25 cm). […] Protein amount was determined according to Lowry method (O. H. Lowry, N. J. Rosenbrough, A. L. Farr, R. J. Randall, J. Biol. Chem. 193 (1951) 265-275).
Next, the effect of linoleoyl-lysoPC concentration on LOX-1-catalyzed oxygenation of linoleoyl-lysoPC was examined.

[3] = biological target: T3, LOX-1 (soybean lipoxygenase) (Glycine max, UniProt P08170); test: pH-dependent oxygenation by LOX, initial velocity of absorbance at 234 nm; details: substrate 100 μM; for LOX activity on various pH conditions: 30 sec, 25° C.
T3 construct: purchased Sigma-Aldrich Corp (St. Louis, Mo., USA) lipoxidase Type I-B
T3 sequence (P08170 1-839): T2 sequence (P08170 1-839)
Procedure: FIG. 7 is an absorbance-pH graph showing the effect of pH on the rate of LOX-1-catalyzed oxygenation of linoleoyl-lysoPC where LOX-1 (0.02 units/ml) was incubated with 100 μM of linoleoyl-lysoPC (▪), 100 μM of sodium linoleate (●) or 250 μM of soybean LPC (▴) in buffers of various pHs; 200 mM phosphate (pH 6-8), 50 mM borax (pH 8.5-9.5) and 300 mM sodium bicarbonate (pH 10-11).
LOX-1 (0.02 units/ml) was incubated with linoleoyl-lysoPC (100 μM) in 500 μl of buffers of various pHs (pH 6.0-11) at 25° C. as described before (Began et al, Biochemistry 38 (1999) 13920-13927); 200 mM phosphate (pH 6-8), 50 mM borax (pH 8.5-9.5), 300 mM sodium bicarbonate (pH 10-11). Separately, the oxygenation was started by including LOX-1 (0.02 units/ml) in the reaction mixture containing sodium linoleate (100 μM) in the presence of Tween 20 (25 μM). […]
LO (840 units/ml Sigma, Saint Louis, Mo., USA) was incubated with 1-linoleoyl-lysophosphatidylcholine (100 μM) in 0.5 ml of buffers of various pHs (pH 6.0-11) as shown in Table 4 for 30 sec at 25° C.

Structure (SMILES) | Vm [1] | Km [1] | Km [2] | Vm [2] | LOX activity on various pH conditions ([3]; pH 6.5) | LOX activity on various pH conditions ([3]; pH 7) | LOX activity on various pH conditions ([3]; pH 7.5) | LOX activity on various pH conditions ([3]; pH 8) | LOX activity on various pH conditions ([3]; pH 8.5) | LOX activity on various pH conditions ([3]; pH 9) | LOX activity on various pH conditions ([3]; pH 9.5) | LOX activity on various pH conditions ([3]; pH 10) | LOX activity on various pH conditions ([3]; pH 10.5) | LOX activity on various pH conditions ([3]; pH 11) | Vm ([2]; listed as linoleoyl-lysoPC) | optimal pH range for oxygenation by LOX-1 ([3]; LOX-1 0.02 units/ml, pH 6-11) | LOX activity on various pH conditions ([3]; pH 6)
CCCCC/C=C\C/C=C\CCCCCCCC(=O)O [Linoleic acid, linoleic acid] | 32.7 ± 1.93 units/mg | 31.2 ± 4.6 µM | 12 ± 0.7 µM | 114.3 ± 6.0 units/mg | ◯ | ◯ | ◯ | ◯ | ◯ | ◯ | ◯ | ◯ | ◯ | ◯ | – | – | –
CCCCC/C=C\C/C=C\CCCCCCCC(=O)OCC(O)COP(=O)([O-])OCC[N+](C)(C)C (stereo not shown) [Linoleoyl-lysoPC, 1-linoleoyl Lysophosphatidylcholine] | 14.42 ± 0.78 units/mg | 15.1 ± 1.34 µM | 12.9 µM | 167.5 ± 10.4 units/mg | – | ◯ | ◯ | ◯ | ◯ | ◯ | – | ◯ | – | ◯ | 167.5 units/mg | about 9 | ◯
